Laboratory results: patent US8476043B2, “Inhibitors for the soluble epoxide hydrolase” (The Regents of the University of California, priority 2004, dated 2013)
Converted amounts (≈) assume the structure as drawn. Like-named read-outs stand apart in the source and are kept apart here.

Assays:
[1] = Oral treatment and pharmacokinetic study in a human subject or patient; assay type: in vivo; details: patient approaching end stage renal disease, brief oral treatment, low doses
Text: The discovery of the secondary and tertiary pharmacophores has also led to the employment of combinatorial chemistry approaches for establishing a wide spectrum of compounds having sEH inhibitory activity. The polar pharmacophores divide the molecule into domains each of which can be easily manipulated by common chemical approaches in a combinatorial manner, leading to the design and confirmation of novel orally available therapeutic agents for the treatment of diseases such as hypertension and vascular inflammation. The agents of the present invention treat such diseases while simultaneously increasing sodium excretion, reducing vascular and renal inflammation, and reducing male erectile dysfunction As shown below (see Example 51 and FIG. 13), alterations in solubility, bioavailability and pharmacological properties leads to compounds that can alter the regulatory lipids of experimental animals increasing the relative amounts of epoxy arachidonate derivatives when compared either to their diol products or to the proinflammatory and hypertensive hydroxyeicosatetraenoic acids (HETEs). Since epoxy arachidonates are anti-hypertensive and anti-inflammatory, altering the lipid ratios can lead to reduced blood pressure and reduced vascular and renal inflammation.
Serial bled blood samples (3-50 μL) were collected from finger tips into 50 μL heparinized capillary tube at various time points (0.5, 1, 2, 4, 6, 12 and 24 hr) after administration. These samples were used to measure parent compounds and their metabolites using LC-MS/MS as described above for experiments with mice. Blood samples were added 400 μL of distilled water and 25 μL of internal standard (500 ng/mL CTU), and vortexed. The blood samples were then extracted with 500 μL of ethyl acetate twice and the ethyl acetate layer was dried under nitrogen. The residue was reconstituted in 25 μL of methanol, and aliquots (10 μL) were injected onto the LC-MS/MS system as described above. Biological end points came from clinical chemistry samples run at The University of California Davis Clinical Laboratory and a series of 6 inflammatory markers including C reactive protein were run blind at the University of California Davis Department of Nephrology.

[2] = Solubility in water; assay type: physicochemical; details: for solubility of adamantyl compound relative to the corresponding cyclohexyl derivative: 789 vs. 772, 790 vs. 791, 686 vs. 297
[3] = target: T1, human sEH (Homo sapiens, UniProt P34913); test: sEH inhibition, spectrometric assay with racemic 4-nitrophenyl-trans-2,3-epoxy-3-phenylpropyl carbonate as substrate; assay type: biochemical
T1 construct: made in house
T1 sequence (P34913 1-555): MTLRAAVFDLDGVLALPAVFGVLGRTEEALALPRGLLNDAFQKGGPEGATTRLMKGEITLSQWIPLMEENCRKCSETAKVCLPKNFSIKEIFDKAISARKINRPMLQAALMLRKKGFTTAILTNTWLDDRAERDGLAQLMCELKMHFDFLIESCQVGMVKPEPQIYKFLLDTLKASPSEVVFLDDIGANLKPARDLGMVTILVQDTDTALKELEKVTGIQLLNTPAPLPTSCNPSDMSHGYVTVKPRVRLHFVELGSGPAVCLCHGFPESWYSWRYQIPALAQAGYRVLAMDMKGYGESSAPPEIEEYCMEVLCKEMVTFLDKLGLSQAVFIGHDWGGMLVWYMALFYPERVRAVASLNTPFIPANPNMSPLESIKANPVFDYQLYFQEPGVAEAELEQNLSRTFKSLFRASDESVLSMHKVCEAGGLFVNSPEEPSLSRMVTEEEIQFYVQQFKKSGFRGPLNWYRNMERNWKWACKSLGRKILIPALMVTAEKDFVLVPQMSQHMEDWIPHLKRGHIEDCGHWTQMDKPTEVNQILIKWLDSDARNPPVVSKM
Protocol: (§1) Recombinant mouse sEH and human sEH were produced in a baculovirus expression system and purified by affinity chromatography. […] Protein concentration was quantified by using the Pierce BCA assay using Fraction V bovine serum albumin as the calibrating standard.
(§2) IC50 values were determined in one of two method. One method uses racemic 4-nitrophenyl-trans-2,3-epoxy-3-phenylpropyl carbonate as substrate. […] Assays were performed in triplicate. […] The curve was generated from at least three separate runs, each in triplicate, to obtain the standard deviation (SD) given in Table 1 thru Table 4.

[4] = target: T1, human sEH; test: sEH inhibition, fluorescent assay with cyano(6-methoxy-naphthalen-2-yl)methyl trans-[(3-phenyloxiran-2-yl)methyl]carbonate as substrate; assay type: biochemical; details: for IC50: Table 5, fluorescent-based assay, 0.96 nM human sEH, pH 7.0, [S] = 5 μM, read-out: Human sEH IC50
Protocol: as §1
Enzyme activity was measured by monitoring the appearance of 6-methoxy-2-naphthaldehyde. Assays were performed in triplicate. […] IC50 values were determined by regression of at least five datum points, with a minimum of two datum points in the linear region of the curve on either side of the IC50 values. The curve was generated from at least three separate runs, each in triplicate.

[5] = target: T2, rat sEH (Rattus norvegicus, UniProt P80299); test: Relative turnover of arachidonic acid epoxides by rat renal cortex cytosol; assay type: biochemical; details: Table 19, EET mixture hydrolyzed to 30% by rat renal cortex cytosol
T2 construct: EET fatty acid was hydrolyzed to 30% by rat renal cortex cytosol; from tissue; host or cells: rat renal cortex cytosol
T2 sequence (P80299 1-554): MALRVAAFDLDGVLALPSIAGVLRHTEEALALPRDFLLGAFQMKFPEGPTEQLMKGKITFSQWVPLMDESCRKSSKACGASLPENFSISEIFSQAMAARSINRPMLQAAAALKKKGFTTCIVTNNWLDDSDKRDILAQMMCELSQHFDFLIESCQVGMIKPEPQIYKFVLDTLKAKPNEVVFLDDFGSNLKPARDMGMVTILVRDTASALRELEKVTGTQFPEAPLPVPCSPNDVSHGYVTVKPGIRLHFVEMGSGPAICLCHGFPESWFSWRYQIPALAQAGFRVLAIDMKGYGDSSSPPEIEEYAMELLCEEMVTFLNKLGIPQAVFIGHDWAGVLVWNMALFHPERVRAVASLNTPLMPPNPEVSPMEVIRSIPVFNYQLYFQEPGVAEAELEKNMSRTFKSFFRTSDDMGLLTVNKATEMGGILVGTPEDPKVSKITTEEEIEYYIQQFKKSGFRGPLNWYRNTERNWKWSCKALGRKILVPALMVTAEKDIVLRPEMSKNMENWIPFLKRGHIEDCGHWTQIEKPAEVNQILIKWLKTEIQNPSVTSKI
Protocol: For epoxy fatty acid hydrolysis, the soluble epoxide hydrolase prefers substrates with epoxide moieties that are more distant from the carboxyl terminal. Specifically the substrate preference decreases in the order of 14,15-EET>11,12-EET>8,9-EET>>>5,6-EET for the epoxides of arachidonic acid. Independently, the relative substrate turnover of the epoxy arachidonates were calculated at 0.1:8.1:14.3 when a 1:1:2 mixture of 8,9-, 11,12-, and 14,15-EET fatty acid was hydrolyzed to 30% by rat renal cortex cytosol. By considering the primary pharmacophore of the urea to be a transition-state analog of epoxide hydrolysis, inhibitors have now been developed which incorporate long aliphatic acids. These compounds are better substrate and transition state mimics than those incorporating shorter aliphatic acids. Accordingly, optimal soluble epoxide hydrolase inhibitors can be obtained by producing compounds with aliphatic acid substituents (i.e. a tertiary pharmacophore) which are separated from the primary pharmacophore by an equivalent distance as the terminal acid is separated from the epoxide in optimal substrates. Within the enzyme active site, epoxy fatty acids have been predicted to exist in an extended or pseudo-linear confirmation. Therefore, both the epoxy fatty acids and the aliphatic acid containing urea structures were approximated as two dimensional linear representations and measurements were made on each species. The critical measurements taken were distances (in angstroms) from the carboxylate hydroxyl to the urea carbonyl and the urea nitrogens.

[6] = Pharmacokinetics after oral gavage in mice; assay type: in vivo, male Swiss Webster mice
Protocol: Animals. Male Swiss Webster mice, 6 weeks-old, were obtained from Charles River (CA, USA). After 1-2 week acclimation period, healthy animals were assigned to study groups based on body-weight stratified randomization procedure. The body weight of animals used in all the experiments ranged from 28 g to 38 g.
Administration and measurement. Pharmacokinetic studies in mice used a 5 mg/kg dose of sEH inhibitors dissolved in corn oil and 4% DMSO administered orally. […] Then the samples were centrifuged at 6000 rpm for 5 min, and the ethyl acetate layer was dried under nitrogen. The residue was reconstituted in 25 μL of methanol, and aliquots (5 μL) were injected onto the LC-MS/MS system.
Analysis. Pharmacokinetics analysis was performed using SigmaPlot software system (SPSS science, Chicago, Ill.).

[7] = Microsomal, NADPH dependent metabolic stability in rat hepatic microsomes; assay type: in vitro ADME; details: 1 μM, NADPH generating system, P450 dependent
Protocol: FIG. 6 is a graph illustrating the metabolic stabilities of 1-adamantyl-3-dodecyl urea (686) and 1-cyclohexyl-3-dodecyl urea (297) in rat hepatic microsomes. Microsomes were incubated with 1 μM 686 or 297 in the presence of an NADPH generating system. Data are expressed as mean±SD of triplicate experiments.
To evaluate the metabolic stability of these inhibitors, the microsomal and NADPH dependent metabolism of a number of potent sEH inhibitors was evaluated. […] The first step in the metabolic transformation of the n-alkyl to n-alkanoic acid derivatives is an NAPDH dependent process carried out by cytochrome P450 dependent omega hydroxylation in rodent and human hepatic tissue preparations (see FIG. 8). When in vivo metabolism was evaluated, evidence for the beta-oxidation of the alkanoic acid derivatives was also found (see FIG. 9).

[8] = Solubility in oil; assay type: physicochemical; details: Table 5
[9] = target: T3, mouse sEH (Mus musculus, UniProt P34914); test: sEH inhibition, spectrometric assay with racemic 4-nitrophenyl-trans-2,3-epoxy-3-phenylpropyl carbonate as substrate; assay type: biochemical; details: read-out: IC50 Mouse sEH
T3 construct: made in house
T3 sequence (P34914 1-554): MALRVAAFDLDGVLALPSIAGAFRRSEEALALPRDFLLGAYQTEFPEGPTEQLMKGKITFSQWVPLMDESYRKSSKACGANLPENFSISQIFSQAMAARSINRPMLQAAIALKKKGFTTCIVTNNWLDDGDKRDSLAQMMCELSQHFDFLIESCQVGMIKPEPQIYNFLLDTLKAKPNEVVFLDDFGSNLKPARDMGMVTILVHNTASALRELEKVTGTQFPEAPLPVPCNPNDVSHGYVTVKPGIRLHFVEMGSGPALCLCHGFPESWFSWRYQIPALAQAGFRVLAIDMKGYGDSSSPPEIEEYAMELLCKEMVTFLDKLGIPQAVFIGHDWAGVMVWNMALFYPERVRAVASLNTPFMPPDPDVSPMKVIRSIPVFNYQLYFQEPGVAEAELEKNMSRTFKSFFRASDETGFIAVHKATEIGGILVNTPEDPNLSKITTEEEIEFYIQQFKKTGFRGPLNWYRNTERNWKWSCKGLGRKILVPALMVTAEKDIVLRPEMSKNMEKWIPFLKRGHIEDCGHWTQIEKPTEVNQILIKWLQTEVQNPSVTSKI
Protocol: as §1, §2

CCCCOC(=O)CCCCCCCCCCCNC(=O)NC12CC3CC(CC(C3)C1)C2 [Compound 800, 1-(1-Adamantyl)-3-(11-butoxycarbonylundecyl)urea]
blood urea nitrogen [1]: dramatic reduction in blood urea nitrogen
serum levels of C reactive protein [1]: dramatically reduced serum levels of C reactive protein
serum profile of regulatory lipids [1]: altered the serum profile of regulatory lipids in a positive manner
systolic and diastolic blood pressure [1]: reduced systolic and diastolic blood pressure

CCCCCOC(=O)CCCNC(=O)NC12CC3CC(CC(C3)C1)C2 [Compound 789, 1-(1-Adamantyl)-3-(3-pentoxycarbonylpropyl)urea]
solubility of adamantyl compound relative to the corresponding cyclohexyl derivative [2]: approximately 2 ×

CCCCCCCCC(NC(=O)CCCCCCCCCCCNC(=O)NC12CC3CC(CC(C3)C1)C2)C(=O)O (stereo not drawn) [Compound 1001, 2-[12-3-(Adamantan-1-yl-ureido)dodecanoylamino]decanoic acid]
IC50 ([3]; Table 5, spectrometric-based assay, read-out: Human sEH IC50): 210 ± 10 nM
fold better water solubility than compound 687 [2]: 2.5 fold
Solubility in water ([2]; Table 5): 63 µg/mL (≈ 112 µM)
fold decrease in inhibition potency on human sEH ([4]; 792 vs. 687, 1001, 1002 and 798 vs. the sulfonylamides): 25 fold
IC50 [4]: 55 nM

CCCCC/C=C\C/C=C\C/C=C\CC1OC1CCCC(=O)O (stereo not drawn) [5,6-EET]
Relative EET Turnover [5]: 0.1

O=C(O)CCCCCCCCCCCNC(=O)NC12CC3CC(CC(C3)C1)C2 [Compound 687, 1-(1-adamantyl)-3-(12-dodecanoic acid)urea]
time to reach the maximum concentration [6]: 30 min
metabolic stability in microsomal preparations [7]: stable

CCCCC/C=C\C/C=C\CC1OC1C/C=C\CCCC(=O)O (stereo not drawn) [8,9-EET]
Relative EET Turnover [5]: 1

CCCCCCCCCCNC(=O)NC12CC3CC(CC(C3)C1)C2 [Compound 790]
solubility of adamantyl compound relative to the corresponding cyclohexyl derivative [2]: approximately 2 ×

O=C(CCCCCCCCCCCNC(=O)NC12CC3CC(CC(C3)C1)C2)NS(=O)(=O)c1ccccc1 [Compound 914]
IC50 [4]: 1.9 nM
fold improvement in inhibition of the human enzyme ([4]; compared with 687 (compound 4)): about 1.5 fold
Solubility in oil [8]: 5,000 μg/mL

CCCCCC1OC1C/C=C\C/C=C\C/C=C\CCCC(=O)O (stereo not drawn) [14,15-EET]
Relative EET Turnover [5]: 14.3

CCCCCCCCCCCCNC(=O)N[C@@H]1CCN(c2ccc(S(=O)(=O)N(C)C)c3nonc23)C1 [Compound 996]
IC50 ([3]; Table 18a, read-out: IC50 Human sEH): 120 ± 10 nM
IC50 ([9]; Table 18a): 170 ± 10 nM

CCCCCCCCCCCCNC(=O)NC12CC3CC(CC(C3)C1)C2 [Compound 686, 1-adamantyl-3-dodecylurea, reference compound]
solubility of adamantyl compound relative to the corresponding cyclohexyl derivative [2]: approximately 2 ×
time to reach the maximum concentration [6]: 120 min
metabolic stability in microsomal preparations [7]: rapidly metabolized

CCCCC/C=C\C[C@H]1O[C@H]1C/C=C\C/C=C\CCCC(=O)O [11,12-EET]
Relative EET Turnover [5]: 8.1

C#CCCOCCOCCCCCNC(=O)NC12CC3CC(CC(C3)C1)C2 [Compound 913]
IC50 ([3]; Table 8, read-out: IC50 Human sEH): 100 ± 10 nM
IC50 ([9]; Table 8): 50 ± 10 nM
